Assay results from paper PMC5317004 (Scientific Reports, 2017).

Test system: chimeric α7-GluClβR
Test: Voltage ramps during current decline: reversal potential, chloride chord conductance, IVM rate constants
Format: cell-based, chick nAChR α7 / C. elegans GluClβ
Description: Figure 6 Chloride conductance of α7-GluClβRs. Representative whole-cell current traces elicited by: (A) ACh alone and (B) ACh to which IVM was added after the current peak. Recordings were performed at −60 mV with intervening 200-ms-long voltage ramps applied from −80 to +20 mV during the current decline, giving output currents r1–r13. *, time lapse of ~1 sec between protocols’ exchange (see “Supplementary Materials and Methods”). Traces in A and B were recorded from the same cell, with an intermediate 74-sec-long wash. Right panels show superimposition of the output currents. (C,D) Current-voltage (I/V) relations extracted from A and B, respectively (r13 in D overlaps the x-axis). (E) Reversal potentials (Erev) extracted from the voltage-ramps’ output currents of A (black squares) and B (red circles), plotted as a function of time (0 sec, time of r1). (F) Decay of chloride chord conductance plotted as a function of time, in the absence or presence of IVM. The conductance points were calculated at −65 mV based on the voltage-ramps’ output currents shown in A and B. Exponential fits (Eq. 6) are shown. (G,H) Normalized (Norm.) conductance (G), current (I), intracellular Cl^− ion concentration ([Cl]i), and electrochemical driving force (VDF) plotted as a function of time for ACh-dependent responses in the absence (panel G) or presence (panel H) of IVM (relating to responses in A and B, respectively). (I,J) Decay of chloride chord conductance plotted as a function of time in representative cells exposed to different IVM concentrations. (K,L,M) Averaged normalized chloride chord conductance (Norm. G) plotted as a function of time under different IVM concentrations. In each cell, each conductance was normalized to the conductance extracted from r1 of the ACh-alone application. N = 7, 11 and 8 in K, L and M, respectively. Error bars are SEM. (N) 1/τIVM plotted as a function of IVM concentration, using equation 7 for curve fitting by linear regression (r^2 = 0.999). 26 cells were analyzed to obtain the averaged 1/τIVM points. Error bars are SEM.
We then took advantage of the capability of IVM to accelerate the current decline in order to determine the binding affinity of IVM. To this end, the voltage ramps’ output currents obtained in the presence of IVM were subtracted from their counterpart currents obtained in the absence of IVM. Then, we calculated the chloride conductance based on the resulting subtracted currents at each ramp. This chloride conductance is hereafter termed GIVM. In each experimented cell, we fitted exponential curves to the first 5-6 conductance points, where there was no substantial difference between the ∆Erev values in the absence or presence of IVM. These exponential fits for the GIVM points were obtained at various IVM concentrations, and they actually provide the time constant of the IVM-dependent Cl^−-conductance decay (τIVM).
Chord conductance (G) was calculated by using equation 5 as follows: […]
The relationship between the conductance values and time was plotted for each cell, and the time constant of conductance decay was determined by fitting an exponential curve to the data points using equation 6 as follows: […]
To calculate the IVM association (kf) and dissociation (kb) rate constants, a curve was fitted to the 1/τIVM values by a linear regression using equation 7 as follows: where τIVM is the time constant of the IVM-dependent Cl^−-conductance decay, and [IVM] is the concentration of IVM. […]

## CC[C@H](C)[C@H]1O[C@]2(CC[C@@H]1C)C[C@@H]1C[C@@H](C/C=C(\C)[C@@H](O[C@H]3C[C@H](OC)[C@@H](O[C@H]4C[C@H](OC)[C@@H](O)[C@H](C)O4)[C@H](C)O3)[C@@H](C)/C=C/C=C3\CO[C@@H]4[C@H](O)C(C)=C[C@@H](C(=O)O1)[C@]34O)O2 [IVM, Ivermectin]
0.5 μM IVM, 740 milliseconds after application, 30 μM ACh
  IVM-dependent decrease in the chloride conductance: 20 ± 2%
30 μM ACh plus 4 μM IVM added after the peak, representative cell
  leftward shift in reversal potential (∆Erev): 11 mV
IVM applied after activation by ACh, read-out: Kd (kb/kf) for IVM binding to activated receptor
  Kd: 1.4 µM
Kd […] vs 156 nM
  Kd (after activation) relative to IC50/Ki (prior to activation): nine times higher
Slope of 1/τIVM vs IVM concentration, 30 μM ACh, 26 cells
  IVM association rate constant (k forward, kf): 290800 M^−1⋅s^−1
